# Measured values taken from patent publication US20220016215A1, “GIP RECEPTOR AGONIST PEPTIDE COMPOUNDS AND USES THEREOF” (TAKEDA PHAARMACEUTICAL COMPANY LIMITED, priority 2018, published 2022).
# Values joined by “and” are separate entries in the source; they are usually repeats but may differ in a detail not shown here. Identical values can stand only once. Marks after values point to notes of the source that are not given here.
# What was measured:
# [1] = test system: morphine (0.6 mg/kg, s.c.)-induced emesis in ferrets; assay: Morphine-induced acute emetic model in male ferrets; assay type: in vivo, ferret; conditions: for Retching Latency / Emesis (Retching + Vomiting) Duration / Retching Duration / Vomiting Duration / Fidget Duration / Licking Duration / Retching Frequency / Vomiting Frequency / Emesis (Retching + Vomiting) Latency / Vomiting Latency / Fidget Latency / Licking Latency / Emesis: Duration / Emesis: Frequency / Emesis: No. of animals (responder/used) / Fidget: Duration / Fidget: Frequency / Fidget: No. of animals (responder/used) / Licking: Duration / Licking: Frequency / Licking: No. of animals (responder/used) / Retching: Duration / Retching: Frequency / Retching: No. of animals (responder/used) / Vomiting: Duration / Vomiting: Frequency / Vomiting: No. of animals (responder/used) / Emesis: Latency / Fidget: Latency / Licking: Latency / Retching: Latency / Vomiting: Latency: ferrets, 10 nmol/kg s.c.; for Retching Latency: morphine (0.6 mg/kg, s.c.) administered 4 h after; for Retching Latency / Emesis (Retching + Vomiting) Duration / Retching Duration / Vomiting Duration / Fidget Duration / Licking Duration / Retching Frequency / Vomiting Frequency / Emesis (Retching + Vomiting) Latency / Vomiting Latency / Fidget Latency / Licking Latency: individual animals and Mean; for Retching Latency / Emesis (Retching + Vomiting) Latency / Vomiting Latency: no emetic response = 30 min; for Emesis (Retching + Vomiting) Duration / Retching Duration / Vomiting Duration / Fidget Duration / Licking Duration / Retching Frequency / Vomiting Frequency / Emesis (Retching + Vomiting) Latency / Vomiting Latency / Fidget Latency / Licking Latency: morphine administered 4 h after; for Emesis (Retching + Vomiting) Duration / Retching Duration / Vomiting Duration: cumulative total duration; for Fidget Latency / Licking Latency: no response = 30 min; for Emesis: Duration / Emesis: Frequency / Emesis: No. of animals (responder/used) / Fidget: Duration / Fidget: Frequency / Fidget: No. of animals (responder/used) / Licking: Duration / Licking: Frequency / Licking: No. of animals (responder/used) / Retching: Duration / Retching: Frequency / Retching: No. of animals (responder/used) / Vomiting: Duration / Vomiting: Frequency / Vomiting: No. of animals (responder/used) / Emesis: Latency / Fidget: Latency / Licking: Latency / Retching: Latency / Vomiting: Latency: morphine 0.6 mg/kg s.c. 4 h after drug; for Emesis: Latency / Fidget: Latency / Licking: Latency / Retching: Latency / Vomiting: Latency: non-responders counted as 30 min; for Comment: Anti-Emetic Activity (inhibition) on morphine-induced emesis: male ferrets, summary of the morphine experiments
# Protocol: Example 6—In-Vivo Effect of GIP Receptor Agonist Peptides on Emesis in Morphine Induced Emesis Model in Live Male Ferrets
# Effect of subcutaneously administered GIP receptor agonist peptide in morphine-induced acute emetic model.
# To evaluate the antiemetic effect, the GIP receptor agonist peptides other than natural human GIP were subcutaneously administered into male ferrets 30 minutes before morphine administration. […]. Up to 60 minutes after morphine administration, the condition of the ferrets was monitored to record the frequencies and time points of abdominal contraction motions, vomiting behaviors, licking with the tongue, and fidgety behavior occurring
# Effects of Subcutaneously Administered GIP Receptor Agonist Peptides in Morphine-Induced Acute Emetic Model
# 30 nmol/kg of Compounds 3 and 5 were dissolved with a vehicle (0.09 w/v % tween 80/10% DMSO/saline), respectively, to prepare test solutions. […] of the test solutions and the vehicle were subcutaneously administered to ferrets (4 in each group), respectively. At the time of each of 4 hours, after administration, 0.6 mg/kg of morphine was subcutaneously administered. […] See results in Tables 6, 7 and 8.
# (§1) 10 nmol/kg of each compound dissolved with a vehicle (0.09 w/v % tween 80/10% DMSO/saline) respectively, to prepare test solutions. […] of the test solutions and the vehicle were subcutaneously administered to ferrets (4 in each group), respectively. At the time of each of 4 hours, or 120 hours after administration, 0.6 mg/kg of morphine was subcutaneously administered. Up to 360 minutes after morphine administration, the condition of the ferrets was monitored to record the frequencies and time points of abdominal contraction motions, vomiting behaviors, licking with the tongue, and fidgety behavior occurring.
# as §1, with “30 nmol/kg” for “10 nmol/kg”, “80/10% DMSO/saline),respectively,” for “80/10% DMSO/saline) respectively,”
# human GIPR = biological target: T1, human GIPR (Homo sapiens, UniProt P48546); assay: Agonist activity on human GIPR, CRE-luciferase reporter assay (increase in intracellular cAMP as indicator); assay type: cell-based; conditions: GLP1R EC50 / GIPR EC50
# T1 construct: expressed in transfected cells
# T1 sequence (P48546 22-466): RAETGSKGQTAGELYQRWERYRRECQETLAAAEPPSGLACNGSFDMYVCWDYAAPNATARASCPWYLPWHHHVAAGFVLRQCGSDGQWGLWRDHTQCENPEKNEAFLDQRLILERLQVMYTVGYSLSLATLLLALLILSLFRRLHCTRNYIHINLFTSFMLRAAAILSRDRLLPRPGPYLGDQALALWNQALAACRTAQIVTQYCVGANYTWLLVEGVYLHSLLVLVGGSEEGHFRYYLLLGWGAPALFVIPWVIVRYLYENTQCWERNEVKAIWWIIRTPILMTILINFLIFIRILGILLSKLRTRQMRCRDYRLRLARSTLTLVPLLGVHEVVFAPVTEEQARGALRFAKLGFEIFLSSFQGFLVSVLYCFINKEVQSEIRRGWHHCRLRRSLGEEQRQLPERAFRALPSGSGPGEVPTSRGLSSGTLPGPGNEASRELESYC
# Description: The human GIPR gene having an identical sequence to Genebank Accession No. U39231 is cloned into a pMSRα-neo vector to prepare hGIPR/pMSRα-neo.
# (2) Construction of Reporter Plasmid Expressing Cell
# Luciferase reporter gene with a cAMP-responsive sequence located upstream is transferred to a CHO-K1 cell to construct a CRE-LUC/CHO-K1 cell.
# (4) Transfer of Human GIPR Gene to CRE-LUC/CHO-K1 Cell and Obtaining of Expressing Cell
# The plasmid hGIPR/pMSRα-neo obtained in (1) is transferred to the CRE-LUC/CHO-K1 cell obtained in (2) to obtain a transformant. Subsequently, the cell line inducing the luciferase expression, hGIPR/CRE-LUC/CHO-K1 cell, is selected from the obtained transformant by adding GIP.
# 25 μL each of the hGIPR/CRE-LUC/CHO-K1 cell is inoculated in a 384-well white plate (Corning) in such a way as to provide 5×10^3 cells/well and may be cultured in a HamF12 medium containing 10% fetal bovine serum, 100 U/mL penicillin, and 100 μg/mL streptomycin in a CO2 incubator at 37° C. overnight. 5 μL of a medium containing a test compound is added to the cells and incubated for 4 hours at the indicated concentration in a CO2 incubator at 37° C. Steady-Glo (Promega) is added in amounts of 30 μL and shaken under light shielding. Twenty minutes later, luciferase activity is measured using a plate reader Envision (PerkinElmer). The GIPR agonist activity is calculated with increase in intracellular cAMP concentration as the indicator when the luciferase activity in the presence of 10 nM of GIP was 100% and the luciferase activity in the case of adding DMSO instead of the test compound was 0%.
substance,measurement,setting,value
YAibEGTFISDYSIELDK(Lys-(ethylene glycol)2-C15 diacid)AAQAFIEWLLAQGPSSGAPPPS-NH2 [Compound 20],Retching Latency,[1],30 min
same,Emesis (Retching + Vomiting) Duration,[1],0 min (4×) and 0.0 min
same,Retching Duration,[1],0 min
same,Vomiting Duration,[1],0 min
same,Fidget Duration,[1],0 min (4×) and 0.0 min
same,Licking Duration,[1],0 min (4×) and 0.0 min
same,Retching Frequency,[1],0
same,Vomiting Frequency,[1],0
same,Emesis (Retching + Vomiting) Latency,[1],30 min
same,Vomiting Latency,[1],30 min
same,Fidget Latency,[1],30 min (4×) and 30.0 min
same,Licking Latency,[1],30 min (4×) and 30.0 min
same,Emesis: Duration,[1],0.0 ± 0.0 min
same,Emesis: Frequency,[1],0.0 ± 0.0
same,Emesis: No. of animals (responder/used),[1],0/4 #
same,Fidget: Duration,[1],0.0 ± 0.0^ min
same,Fidget: Frequency,[1],0.0 ± 0.0
same,Fidget: No. of animals (responder/used),[1],0/4 #
same,Licking: Duration,[1],0.0 ± 0.0^ min
same,Licking: Frequency,[1],0.0 ± 0.0
same,Licking: No. of animals (responder/used),[1],0/4 #
same,Retching: Duration,[1],0.0 ± 0.0 min
same,Retching: Frequency,[1],0.0 ± 0.0
same,Retching: No. of animals (responder/used),[1],0/4 #
same,Vomiting: Duration,[1],0.0 ± 0.0 min
same,Vomiting: Frequency,[1],0.0 ± 0.0
same,Vomiting: No. of animals (responder/used),[1],0/4 #
same,Emesis: Latency,[1],30.0 ± 0.0 min
same,Fidget: Latency,[1],30.0 ± 0.0 min
same,Licking: Latency,[1],30.0 ± 0.0 min
same,Retching: Latency,[1],30.0 ± 0.0 min
same,Vomiting: Latency,[1],30.0 ± 0.0 min
same,Comment: Anti-Emetic Activity (inhibition) on morphine-induced emesis,[1],100% inhibition
same,Selectivity Ratio (B/A),human GIPR,">100,000"
YAibEGTFISDYSIALDKI(Lys-(ethylene glycol)2-C15 diacid)QQDFVNWLLAQRG-OH [Compound 25],Retching Latency,[1],30 min
same,Emesis (Retching + Vomiting) Duration,[1],0 min (4×) and 0.0 min
same,Retching Duration,[1],0 min
same,Vomiting Duration,[1],0 min
same,Fidget Duration,[1],0 min (4×) and 0.0 min
same,Licking Duration,[1],0 min (4×) and 0.0 min
same,Retching Frequency,[1],0
same,Vomiting Frequency,[1],0
same,Emesis (Retching + Vomiting) Latency,[1],30 min
same,Vomiting Latency,[1],30 min
same,Fidget Latency,[1],30 min (4×) and 30.0 min
same,Licking Latency,[1],30 min (4×) and 30.0 min
same,Emesis: Duration,[1],0.0 ± 0.0 min
same,Emesis: Frequency,[1],0.0 ± 0.0
same,Emesis: No. of animals (responder/used),[1],0/4 #
same,Fidget: Duration,[1],0.0 ± 0.0^ min
same,Fidget: Frequency,[1],0.0 ± 0.0
same,Fidget: No. of animals (responder/used),[1],0/4 #
same,Licking: Duration,[1],0.0 ± 0.0^ min
same,Licking: Frequency,[1],0.0 ± 0.0
same,Licking: No. of animals (responder/used),[1],0/4 #
same,Retching: Duration,[1],0.0 ± 0.0 min
same,Retching: Frequency,[1],0.0 ± 0.0
same,Retching: No. of animals (responder/used),[1],0/4 #
same,Vomiting: Duration,[1],0.0 ± 0.0 min
same,Vomiting: Frequency,[1],0.0 ± 0.0
same,Vomiting: No. of animals (responder/used),[1],0/4 #
same,Emesis: Latency,[1],30.0 ± 0.0 min
same,Fidget: Latency,[1],30.0 ± 0.0 min
same,Licking: Latency,[1],30.0 ± 0.0 min
same,Retching: Latency,[1],30.0 ± 0.0 min
same,Vomiting: Latency,[1],30.0 ± 0.0 min
same,Comment: Anti-Emetic Activity (inhibition) on morphine-induced emesis,[1],100% inhibition
same,Selectivity Ratio (B/A),human GIPR,">100,000"
